Experimental data reported in patent US5894021A, “Iontophoretic transdermal drug-delivery interface and skin treatment agent and treatment method using the same” (Kabushiki Kaisya Advance, priority 1994, dated 1999).

Tests used:
[1] = Prevention test of skin adsorption of drug: nonabsorbed calcitonin in solution on excised rat skin (Example 2), HPLC; format: in vitro ADME, male hairless rats; conditions: after one hour, 2 μg/ml calcitonin, 60 min
Experimental: The stomach skin of male hairless rats of 13 weeks age were sheared by electric shears, then lightly rubbed and disinfected by absorbent cotton containing an aqueous solution of 70% ethanol. The skin was separated by scissors, then placed on a paper towel moistened with physiological saline with the epidermal side facing up. An acrylic chamber cup (18 mm diameter and 20 mm height) was immersed for 5 minutes in a silicone coating and an aqueous solution of 1% benzalkonium chloride, then was fully rinsed and washed by distilled water. The acrylic chamber cup was adhered to the skin by medicinal adhesive and dried, then filled with 2 ml of an aqueous solution of 1% benzalkonium chloride (Group 2)or distilled water as a control (Group 1) and allowed to stand for 5 minutes. The solution was removed then the cup was fully rinsed and washed by distilled water. As one example of the polypeptide drug, a solution of 2 μg/ml of calcitonin (synthetic salmon calcitonin made by Sigma Co.) in distilled water was prepared. A 2 ml amount each were added to two acrylic chamber cups treated as explained above which were then allowed to stand. Amounts of 100 μl each were sampled after 1, 2, and 6 hours and the amount of nonabsorbed calcitonin in the solution was measured by high pressure liquid chromatography.

[2] = tested on: calcium value in the rat serum; assay: Transdermal iontophoretic administration of calcitonin in rats with benzalkonium chloride-treated or nontreated nylon porous film (Example 1), serum calcium; format: in vivo, SD male rats; conditions: 2 IU (0.4 μg) per sheet, 6 V, 30 kHz, 30% duty, 45 minutes
Source text: These drug holding members, that is, the ion exchange membrane (4), nonwoven fabric (5), and nylon porous member (6) (in this case the holding including at least contact with a drug contact member also acceptable) are coated or impregnated uniformly by an aqueous solution of 0.01% benzalkonium chloride or else immersed in an aqueous solution of the same for treatment, then stripped of water and dried. Of the thus obtained AC-220 membrane, nonwoven fabric, and nylon porous member, the skin contact surface of the nylon porous member has deposited on it a bioactive peptide by a means such as spray coating or impregnation followed by drying for retention. The portion of the nylon porous member (6) coming into contact with the live skin has the drug (11) affixed to it. At the edges of the nylon porous member (6) and under the support (10) are for example disposed an adhesive tape (8) composed of Blenderm® (made by 3M Health Care Ltd.).
Method: Under pentobarbital anesthesia, 7 week old SD male rats had their stomach skin sheared by electric shears and shaved by a shaver, then absorbent cotton containing an aqueous solution of 70% by weight ethanol was used to lightly rub and disinfect the area. […] The serum calcium was measured by the o-cresol phthalein complex method (Calcium C Test Wako made by Wako Pure Chemical Industries, Ltd.).

[3] = tested on: calcium value in the rat serum; assay: Transdermal iontophoretic administration of calcitonin in rats after skin cleaning (Example 3), serum calcium; format: in vivo, male SD rats; conditions: 0.04 μg per sheet, 6 V, 30 kHz, 30% duty, 45 minutes
Experimental: Under pentobarbital anesthesia, 7 week old male SD rats had their stomach skin sheared by electric shears and shaved by a shaver, then absorbent cotton containing an aqueous solution of 70% by weight ethanol (Group 3) or absorbent cotton containing an aqueous solution of 70% by weight ethanol plus 0.01% benzalkonium chloride (Group 4) was used to lightly rub and disinfect the areas. Calcitonin dried and held in an amount of 0.04 μg per sheet of drug film (synthetic salmon calcitonin made by Sigma Co.) was dissolved in an aqueous solution at the time of use and used for one rat. The conditions of conductance of power in the iontophoresis were a depolarization type constant voltage high duty pulse of 6 V, 30 kHz, and 30% duty applied for 45 minutes. The blood was sampled after a predetermined time from the jugular vein and was centrifugally separated at 12,000 rpm for 5 minutes. The supernatant was used as the serum sample. The calcium in the blood was measured by the o-cresol phthalein complex method (Calcium C Test Wako made by Wako Pure Chemical Industries, Ltd.).

With calcitonin the “amount of calcitonin in the aqueous solution in terms of the initially prepared concentration” value ([1]; skin washed with 1% benzalkonium chloride (Group 2)) was “approximately 60%”, the “amount of calcitonin in the aqueous solution in terms of the initially prepared concentration” value ([1]; skin washed with just distilled water (Group 1)) was “approximately 30%” and the “maximum reduction in the calcium value in the rat serum” value ([2]; nylon porous film not coated with surfactant (nontreated group)) was “approximately 17%”. For the same substance, the “maximum reduction in the calcium value in the rat serum” value ([2]; nylon porous film treated by benzalkonium chloride (treated group)) was 28%, the “maximum reduction in the calcium value in rat serum” value ([3]; skin cleaned by 70% by weight ethanol containing 0.01% benzalkonium chloride (Group 4)) was “about 30%” and the “maximum reduction in the calcium value in the rat serum” value ([3]; skin cleaned by 70% ethanol alone (Group 3)) was “approximately 13%”.
